Measurements reported in patent publication US20150299233A1, “COMPOSITIONS AND METHODS COMPRISING RHENIUM FOR THE TREATMENT OF CANCERS” (Massachusetts Institute of Technology, priority 2014, published 2015).
Read-outs that look alike come from different tables or passages of the source.

Key:
[1] = system: A549 cells; assay: MTT cytotoxicity assay, A549 cells; type: cell-based, human
Method: In vitro toxicity of the rhenium (v) oxo complexes, 1 and 2 towards a panel of human cell lines was determined using the colorimetic MTT [[3-(4,5-dimethylithiazol-2-yl)-2,5-diphenyltetrazolium bromide] assay.
The in vitro effect of rhenium(V) oxo complexes 1 and 2 toward a panel of human cell lines was determined by the colorimetric MTT [3-(4,5-dimethylthiazol-2-yl)-2,5-diphenyltetrazolium bromide] assay. […] The IC50 values, or concentration required to induce 50% cell death, were derived from dose—response curves and are summarized in Table 1.
Cells (2×10^3 cells/well) were seeded in a 96-well plate. […] 1 and 2 were prepared as 10 mM solutions in DMSO and diluted using media. The final concentration of DMSO in each well was 0.5%, and this amount was also present in the untreated control. After 72 h, the medium was removed, 200 μL of a 0.4 mg/mL solution of MTT in DMEM, RPMI, or McCoy's 5A was added, and the plate was incubated for an additional 1-2 h. The DMEM/MTT, RPMI/MTT, or McCoy's 5A/MTT mixture was aspirated, and 200 μL of DMSO was added to dissolve the resulting purple formazan crystals. The absorbance of the solution wells was read at 550 nm. Absorbance values were normalized to DMSO-containing control wells and plotted as the concentration of test compound versus % cell viability. IC50 values were interpolated from the resulting dose-dependent curves. The reported IC50 values are the average from at least three independent experiments, each of which consisted of six replicates per concentration level.

[2] = system: A549 cells; assay: Cytotoxicity in the presence of cell death inhibitors, A549 cells; type: cell-based, human; conditions: for effect of co-treatment with IM-54 on toxicity: IM-54 10 μM, FIG. 1B; for effect of co-incubation with necrostatin-1 on toxicity, A549: necrostatin-1 60 μM, t test p<0.05, FIG. 1B
Method: In order to determine the cell-killing mechanism of 1 and 2, cytotoxicity studies in the presence of apoptosis and necrosis inhibitors were conducted. […] The possibility that 1 and 2 induce necroptosis was then investigated. […] To determine whether 1 and 2 induced necroptosis and/or uncontrolled necrosis, cytotoxicity studies were conducted in the presence of necrostatin-1 (60 μM) and IM-54 (10 μM), an inhibitor of H2O2-induced necrosis.
Cytotoxicity MTT Assay. […] Cells (2×10^3 cells/well) were seeded in a 96-well plate. […] 1 and 2 were prepared as 10 mM solutions in DMSO and diluted using media. The final concentration of DMSO in each well was 0.5%, and this amount was also present in the untreated control. After 72 h, the medium was removed, 200 μL of a 0.4 mg/mL solution of MTT in DMEM, RPMI, or McCoy's 5A was added, and the plate was incubated for an additional 1-2 h. The DMEM/MTT, RPMI/MTT, or McCoy's 5A/MTT mixture was aspirated, and 200 μL of DMSO was added to dissolve the resulting purple formazan crystals. The absorbance of the solution wells was read at 550 nm. Absorbance values were normalized to DMSO-containing control wells and plotted as the concentration of test compound versus % cell viability. IC50 values were interpolated from the resulting dose-dependent curves. The reported IC50 values are the average from at least three independent experiments, each of which consisted of six replicates per concentration level.
For specific cell death inhibitor assays, inhibitors of necroptosis (necrostatin-1, 60 μM), H2O2-induced necrosis (IM-54, 10 μM), and apoptosis (v-VAD-FMK, 5 μM) were added to cells and incubated for 1 h prior to treatment with the test compounds.

[3] = system: HT-29; assay: Cytotoxicity in the presence of necrostatin-1, HT-29 cells; type: cell-based, human; conditions: necrostatin-1 60 μM, t test p<0.05
Method: In order to determine the cell-killing mechanism of 1 and 2, cytotoxicity studies in the presence of apoptosis and necrosis inhibitors were conducted. […] The possibility that 1 and 2 induce necroptosis was then investigated. Necroptosis is a well-regulated mode of cell death that is different from unregulated necrosis and apoptosis. Unlike unregulated necrosis, which can be induced by H2O2 or heat, necroptosis generally involved the interaction of protein kinases, RIP1 and RIP3, to initiate cell disintegration. This process can be blocked by necrostatin-1, a potent RIP1 kinase inhibitor. To determine whether 1 and 2 induced necroptosis and/or uncontrolled necrosis, cytotoxicity studies were conducted in the presence of necrostatin-1 (60 μM) and IM-54 (10 μM), an inhibitor of H2O2-induced necrosis. […] Therefore, 1- and 2-induced cell death relies on RIP1-RIP3 complex formation and not on the expression levels of the individual protein kinases. RIP1 can also form a cytosolic complex with Fas-associated death domain (FADD) and caspase 8, known as a ripoptosome, to initiate apoptosis (through caspase 8 cleavage).
Cytotoxicity MTT Assay. […] Cells (2×10^3 cells/well) were seeded in a 96-well plate. […] The absorbance of the solution wells was read at 550 nm. Absorbance values were normalized to DMSO-containing control wells and plotted as the concentration of test compound versus % cell viability. […]

[4] = system: A549 cells; assay: JC-1 mitochondrial membrane potential assay; type: cell-based, human; conditions: for JC-1 green fluorescence versus untreated cells (mitochondrial membrane disruption): 1, 2, shikonin 20 μM for 12 h, CCCP 5 μM for 12 h
Method: The effect of 1 and 2 on the mitochondrial membrane potential was assessed by flow cytometry, using the JC-1 assay (5,5′,6,6′-tetrachloro-1,1′,3,3′-tetraethylbenzimidazolyl carbo-cyanine iodide). JC-1 is a cationic lipophilic dye that localizes in the mitochondria of healthy cells as red-emitting aggregates. If the mitochondrial membrane potential is disrupted, JC-1 forms green-emitting monomers. […] This could explain the high residual toxicity (>1 μM) observed for A549 cells co-incubated with the rhenium complexes (1 and 2) and necrostatin-1 (FIG. 1B).
JC-1 Assay. The JC-1 Mitochondrial Membrane Potential Assay Kit (Cayman) was used. The manufacturer's protocol was followed to carry out this experiment. Briefly, to untreated and treated A549 cells (1.5×10^6 cells/well) grown in six-well plates was added the JC-1 staining solution (100 μL/mL of cell media). The cells were incubated for 30 min, harvested, and analyzed by using the FACSCalibur-HTS flow cytometer (BD Biosciences) (20 000 events per sample were acquired).The FL1 channel was used to assess mitochondrial depolarization. Cell populations were analyzed using the FlowJo software (Tree Star).

[5] = system: MEFs PARP-1+/+ and MEFs PARP-1−/− cells; assay: Cytotoxicity in MEFs PARP-1+/+ versus PARP-1-/- cells; type: cell-based, mouse; conditions: 72 h, FIG. 3A
Method: (PARP-1). PARP-1 is a nuclear enzyme that is involved in DNA repair and transcriptional regulation. DNA damage can trigger PARP-1 activity, resulting in ATP and NAD depletion and bioenergetics- mediated cell death. To determine whether PARP-1 activity is a factor in 1- and 2-mediated cell death, cytotoxicity assays were conducted with wild-type mouse embryonic fibroblast cells (MEFs PARP-1+/+) and the corresponding PARP-1-null cells (MEFs PARP-1−/−). […] Recently, p53 has also been reported to play a role in necroptosis. p53 induces cathepsin Q, a lysosomal protease that cooperates with ROS to execute necrosis. To investigate whether p53 might play a role in 1- and 2-mediated necroptosis, cytotoxicity studies were conducted with HCT116 p53^+/+ nd HCT116 p53^−/− cells.
Cell Cycle Analysis. To gain a more complete understanding of the cellular response evoked, DNA-flow cytometric studies were conducted to determine the effect of 1 and 2 on the cell cycle. A549 cells were treated with 1 or 2 (2 μM), and the cell cycle was determined over the course of 72 h. […] Upon further incubation (72 h), large populations of cell debris were detected (32%), indicative of cell death. […]
Cytotoxicity MTT Assay. […] The absorbance of the solution wells was read at 550 nm. Absorbance values were normalized to DMSO-containing control wells and plotted as the concentration of test compound versus % cell viability. […]

[6] = system: A549 cells; assay: Cell cycle analysis, DNA-flow cytometry; type: cell-based, human; conditions: 2 μM
Method: Cell Cycle Analysis. To gain a more complete understanding of the cellular response evoked, DNA-flow cytometric studies were conducted to determine the effect of 1 and 2 on the cell cycle. A549 cells were treated with 1 or 2 (2 μM), and the cell cycle was determined over the course of 72 h. […] Upon further incubation (72 h), large populations of cell debris were detected (32%), indicative of cell death. […] G1-phase cell cycle arrest followed by immediate cell death is characteristic of programmed necrosis.
Cell Cycle. In order to monitor the cell cycle, flow cytometry studies were carried out. A549 cells (1.5×10^6 cells/well) grown in six-well plates were incubated with and without the test compounds for 24, 48, and 72 h at 37° C. Cells were harvested from adherent cultures by trypsinization and combined with all detached cells from the incubation medium to assess total cell viability. Following centrifugation at 1000 rpm for 5 min, cells were washed with PBS and then fixed with 70% ethanol in PBS. Fixed cells were collected by centrifugation at 2500 rpm for 3 min, washed with PBS, and centrifuged as before. Cellular pellets were resuspended in 50 μg/mL PI (Sigma) in PBS for nucleic acids staining and treated with 100 µg/mL RNaseA (Sigma). DNA content was measured on a FACSCalibur-HTS flow cytometer (BD Biosciences) using laser excitation at 488 nm, and 20 000 events per sample were acquired. Cell cycle profiles were analyzed using the ModFit software.

[7] = Table 1, 72 h exposure, ± standard deviation, read-out: IC50 A549 lung carcinoma
[8] = Table A, average of three independent determinations, read-out: IC50 A549 (lung)

## C[O][Re](=[O])([Cl])[Cl].c1ccc(-c2ccnc3c2ccc2c(-c4ccccc4)ccnc23)cc1 [Compound 1, [ReO(OMe)(4,7-diphenyl-1,10-phenanthroline)-Cl2]]
[1]; [7]
  IC50: 207 ± 4 nM
[1]; [8]
  IC50: 207 ± 4 nM
[1]; ratio to cisplatin, Example 1
  higher toxicity for lung carcinoma A549 cells than cisplatin: 37 fold
[2]
  effect of co-treatment with IM-54 on toxicity: did not significantly affect the toxicity
  effect of co-incubation with necrostatin-1 on toxicity, A549: markedly decreased the toxicity
[3]
  effect of co-incubation with necrostatin-1 on toxicity, HT-29: markedly decreased the toxicity
[4]
  induced mitochondrial membrane depletion with necrostatin-1: amplified
  JC-1 green fluorescence versus untreated cells (mitochondrial membrane disruption): increased green fluorescence
[5]
  IC50 in MEFs PARP-1+/+ compared with MEFs PARP-1−/−: similar
[6]
  effect on cell cycle after 24 h: stalled the cell cycle at the G1 phase
  population of cell debris, 72 h: 32%
[6]; 48 h
  effect on cell cycle after 48 h: remained stalled at the G1 phase

## C[O][Re-2]1(=[O])([Cl])([Cl])[n+]2cc(C)c(C)c3ccc4c(C)c(C)c[n+]1c4c32 [Compound 2, [ReO(OMe)(3,4,7,8-tetramethyl-1,10-phenanthroline)Cl2]]
[1]; [7]
  IC50: 157 ± 15 nM
[1]; [8]
  IC50: 73 ± 3 nM
[2]
  effect of co-treatment with IM-54 on toxicity: did not significantly affect the toxicity
  effect of co-incubation with necrostatin-1 on toxicity, A549: markedly decreased the toxicity
[3]
  effect of co-incubation with necrostatin-1 on toxicity, HT-29: markedly decreased the toxicity
[4]
  induced mitochondrial membrane depletion with necrostatin-1: amplified
  JC-1 green fluorescence versus untreated cells (mitochondrial membrane disruption): increased green fluorescence
[5]
  IC50 in MEFs PARP-1+/+ compared with MEFs PARP-1−/−: similar
[6]
  effect on cell cycle after 24 h: stalled the cell cycle at the G1 phase
  population of cell debris, 72 h: 38%
[6]; 48 h
  population of cell debris, 48 h: 26%
